{
  "source": "patent US11181534B2",
  "about": "“Routine laboratory and point-of-care (POC) testing for hemostasis” (Bloodworks, priority 2014, dated 2021)",
  "key": {"[1]": {"tested_on": "Factor IX (FIX)", "assay": "FIX Antigen by FIX-EIA paired antibody ELISA in patient plasma", "format": "in vivo, human", "conditions": "FIX Case #1, patient with severe Hemophilia B, at presentation, 6 days after Benefix", "description": "(§1) Blood samples were collected by venipuncture in 3.2% sodium citrate anticoagulant. Platelet poor plasma was separated by centrifugation per clinical protocols, snap frozen, and stored at −80 C until tested. FIX Antigen was measured by FIX-EIA paired antibody ELISA (Affinity Biologicals). FIX-deficient plasma (Affinity Biologicals) was used as a negative control and diluent. FIX Activity was performed via manual one-stage assay per the clinical laboratory protocols of the Bloodworks Northwest Hemostasis Reference Laboratory. FIX-deficient plasma (Siemens) was used as a diluent and negative control. The Benefix (Wyeth Pharmaceuticals) coefficient was ascertained by serial dilution of Benefix into FIX-deficient plasma (Affinity Biologicals), performance of both the FIX Antigen and Activity assays, and calculating the Activity:Antigen ratio."}, "[2]": {"tested_on": "Factor IX (FIX)", "assay": "FIX Activity by manual one-stage assay in patient plasma", "format": "in vivo, human", "conditions": "FIX Case #1, at presentation, 6 days after Benefix", "description": "as §1"}, "[3]": {"tested_on": "Factor IX (FIX)", "assay": "FIX coefficient, Activity:Antigen ratio (dilution into FIX-deficient plasma / normal plasma standards)", "format": "biochemical, human", "description": "as §1\nThe patient then received a dose of Alprolix followed by a blood draw 24 hours later. The Alprolix drug coefficient was not able to be experimentally determined due to limited drug availability. In lieu of this, we used normal plasma standards and experimentally determined the coefficient of normal human FIX to be 1.1. We then assumed the drug coefficient for Alprolix to be similar to naturally occurring FIX, and determined the patient's FIX level by: FIX Activity=(Base FIX Activity)+[(Measured FIX Antigen−Base FIX Antigen)×(Patient's FIX Coefficient)]."}, "[4]": {"tested_on": "Factor XI (FXI)", "assay": "Factor XI Coefficient, serial dilution of normal reference plasma into FXI-deficient plasma", "format": "biochemical, human", "conditions": "plasma pooled from healthy subjects", "description": "Commercially-available normal and abnormal (FVII- and FXI-deficient) plasmas (Siemens) were obtained to be tested as experimental samples. Factor VII and Factor XI Coefficients were determined by serial dilution of normal reference plasma (Precision BioLogic) into FVII-deficient and FXI-deficient plasmas (Affinity Biologicals).\nWe tested two plasmas, one with normal levels of FXI, and one deficient in FXI (approximately 1/3 FXI activity). We experimentally determined using plasma pooled from healthy subjects that the coefficient of natural FXI is 0.82. The FXI Activity was then determined by: FXI Activity=[(Measured FXI Antigen)×(FXI Coefficient)]."}, "[5]": {"tested_on": "Factor VIII (FVIII)", "assay": "FVIII Activity by manual one-stage assay in patient plasma", "format": "in vivo, human", "conditions": "FVIII Case #3, 45 min after Stimate; baseline 18.9%", "description": "(§2) Blood samples were collected by venipuncture in 3.2% sodium citrate anticoagulant. Platelet poor plasma was separated by centrifugation per clinical protocols, snap frozen, and stored at −80 C until tested. FVIII Antigen was measured by ELISA (FVIII-AG ELISA kit, Affinity Biologicals) per the manufacturer's instructions. FVIII Activity was measured by manual one-stage assay per the clinical protocol of the Bloodworks Northwest Hemostasis Reference Laboratory. The Koate DVI (Kedrion) coefficient (in vivo) was ascertained by measuring FVIII Antigen and FVIII Activity samples from patients undergoing clinically-indicated Koate DVI kinetic studies and calculating the Activity:Antigen ratio. Pooled normal plasma (Precision BioLogic), normal reference plasmas (Precision BioLogic, Siemens), abnormal reference plasma (Siemens), samples from healthy blood donors, and FVIII-deficient plasma (Affinity Biologicals, Siemens) were used in assays as standards and controls."}, "[6]": {"tested_on": "Factor VIII (FVIII)", "assay": "FVIII Antigen by ELISA (FVIII-AG ELISA kit) in patient plasma", "format": "in vivo, human", "description": "as §2"}},
  "data": [
    {"compound": "Benefix: a different FIX replacement therapy (Wyeth Pharmaceuticals / Pfizer)", "values": [
      {"measurement": "Measured FIX Antigen (FIX:Ag)", "setting": "[1]", "value": 8.0, "unit": "IU/dL"},
      {"measurement": "FIX Activity (Measured)", "setting": "[2]", "value": 4, "unit": "%"},
      {"measurement": "drug coefficient (FIX Activity:Antigen ratio)", "setting": "[3]; serial dilution of Benefix into FIX-deficient plasma", "value": 2.1}
    ]},
    {"compound": "natural FXI: FXI of plasma pooled from healthy subjects", "values": [
      {"measurement": "coefficient of natural FXI", "setting": "[4]", "value": 0.82}
    ]},
    {"compound": "NC(=O)CC[C@@H]1NC(=O)[C@H](Cc2ccccc2)NC(=O)[C@H](Cc2ccc(O)cc2)NC(=O)CCSSC[C@@H](C(=O)N2CCC[C@H]2C(=O)N[C@H](CCCN=C(N)N)C(=O)NCC(N)=O)NC(=O)[C@H](CC(N)=O)NC1=O", "note": "[Stimate]", "values": [
      {"measurement": "FVIII Activity (Measured)", "setting": "[5]", "value": 50.76, "unit": "%"},
      {"measurement": "FVIII Activity (Calculated)", "setting": "[6]; FVIII Case #3, 45 min after Stimate, calculated with patient's FVIII coefficient 1.97, baseline 18.9%", "value": 48.92, "unit": "%"},
      {"measurement": "Measured FVIII Antigen (FVIII:Ag) (after Stimate)", "setting": "[6]; FVIII Case #3, patient with mild Hemophilia A, 45 min after Stimate, baseline 9.59 IU/dL", "value": 24.83, "unit": "IU/dL"}
    ]},
    {"compound": "normal human FIX: naturally occurring FIX in normal plasma standards", "values": [
      {"measurement": "coefficient of normal human FIX", "setting": "[3]; normal plasma standards", "value": 1.1}
    ]}
  ]
}
